Data on 14 molecules can be found in PubChem BioAssay (NCI).

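96-well plates; 48 h exposure; 5 concentrations. Endpoints by linear interpolation between flanking doses. Not reached: highest tested concentration assigned. GI50 is the concentration that inhibits growth by half. TGI: total growth inhibition.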 Bounds are passed on as bounds.

Some test systems named below: RXF 393 renal; 786-0 renal; U251 CNS; UACC-62 melanoma; LOX IMVI melanoma; ACHN renal; NCI-H522 lung; A498 renal; MOLT-4 leukemia; T-47D breast.
Common to all, as to test: NCI anticancer screen, dose series, 48 h

Regarding `COc1cccc(C=NC23CC4CC(CC(C4)C2)C3)c1`, the TGI in the assay on RXF 393 renal, with 786-0 renal, in the assay with U251 CNS, in the assay on UACC-62 melanoma, with LOX IMVI melanoma and in the assay on ACHN renal was greater than 100 µM each time. For the same molecule, the TGI with NCI-H522 lung, in the assay on A498 renal and in the assay with MOLT-4 leukemia was greater than 100 µM throughout.
On to `CCOC(=N)CC(=O)Nc1ccccc1CC`, for which the TGI in the assay with RXF 393 renal, in the assay on 786-0 renal, in the assay with U251 CNS, in the assay with UACC-62 melanoma, in the assay with LOX IMVI melanoma and in the assay on ACHN renal was greater than 100 µM in each case. The TGI in the assay on NCI-H522 lung, in the assay with A498 renal and in the assay with MOLT-4 leukemia was greater than 100 µM each time.
As for `CNC(=O)NCCCCC(NC(C)=O)C(=O)NCc1ccccc1` (stereo unspecified), the TGI in the assay with RXF 393 renal, in the assay with 786-0 renal, in the assay on U251 CNS, in the assay with UACC-62 melanoma, with LOX IMVI melanoma and in the assay with ACHN renal was greater than 100 µM in each case. Also, the TGI in the assay with NCI-H522 lung, in the assay with A498 renal and with MOLT-4 leukemia was greater than 100 µM each time.
`COc1ccccc1/C=C(\NC(=O)c1ccccc1)c1nc2ccccc2[nH]1`: the TGI in the assay with RXF 393 renal, in the assay on 786-0 renal, in the assay with U251 CNS, in the assay on UACC-62 melanoma, in the assay on LOX IMVI melanoma and with ACHN renal was greater than 100 µM throughout. Further, the TGI in the assay with NCI-H522 lung, in the assay on A498 renal and in the assay with MOLT-4 leukemia was greater than 100 µM throughout.
For `Cc1cccc(C=NC23CC4CC(CC(C4)C2)C3)c1`, the TGI with RXF 393 renal, in the assay on 786-0 renal, in the assay with U251 CNS, with UACC-62 melanoma, in the assay with LOX IMVI melanoma and in the assay on ACHN renal was greater than 100 µM in each case. Besides, the TGI in the assay on NCI-H522 lung, with A498 renal and in the assay with MOLT-4 leukemia was greater than 100 µM in each case.
For `O=C1N=C2N=C(c3ccc(Cl)cc3)N(c3ccc(Cl)cc3)N2Sc2ccccc21`, the TGI in the assay with RXF 393 renal is greater than 100 µM; with 786-0 renal, greater than 100 µM; with U251 CNS, 87.2 µM; with UACC-62 melanoma it was greater than 100 µM; in the assay with LOX IMVI melanoma it was greater than 100 µM; in the assay with ACHN renal, greater than 100 µM. Further, the TGI in the assay with NCI-H522 lung, in the assay on A498 renal and with MOLT-4 leukemia was greater than 100 µM each time.
`CCCCC[C@H]1C/C=C2/C(=O)C=C[C@@H]2C/C=C\CCCC(=O)O1`: the GI50 is 0.0944 µM in the assay on RXF 393 renal; 0.164 µM with 786-0 renal; 0.116 µM in the assay with U251 CNS; 0.0899 µM in the assay with LOX IMVI melanoma; 0.0987 µM with ACHN renal; 0.0936 µM in the assay with NCI-H522 lung. In addition, the GI50 in the assay with A498 renal is 0.193 µM; in the assay on MOLT-4 leukemia, 0.143 µM. Besides, the TGI with RXF 393 renal was found to be 0.223 µM; with 786-0 renal, 0.489 µM; in the assay on U251 CNS, 0.305 µM; in the assay on LOX IMVI melanoma, 0.18 µM; in the assay with ACHN renal, 0.202 µM; in the assay with NCI-H522 lung it was 0.236 µM. Further, the values for the TGI in the assay on A498 renal and in the assay on MOLT-4 leukemia were 0.878 µM and 1.06 µM, respectively.
Consider `O=C(C#Cc1ccccc1)NC/C=C/c1ccccc1`, for which the TGI with RXF 393 renal is 37 µM; in the assay on 786-0 renal, 56.2 µM; with U251 CNS, greater than 100 µM; in the assay on UACC-62 melanoma, greater than 100 µM; in the assay with LOX IMVI melanoma, greater than 100 µM; with ACHN renal it was greater than 100 µM. Also, the TGI with NCI-H522 lung is 96.6 µM; in the assay with A498 renal it was greater than 100 µM; in the assay on MOLT-4 leukemia, greater than 100 µM.
`NC(=S)c1cccc(C2Nc3ccccc3O2)c1` (stereo unspecified): the TGI in the assay with RXF 393 renal is greater than 100 µM; in the assay on 786-0 renal it was greater than 100 µM; with T-47D breast, greater than 100 µM; in the assay with U251 CNS, greater than 100 µM; in the assay with UACC-62 melanoma, 96.2 µM; with ACHN renal, greater than 100 µM. Besides, the TGI with NCI-H522 lung and with MOLT-4 leukemia was greater than 100 µM throughout.
On to `O=C1C(=O)N(c2cc(Cl)ccc2Cl)C(=O)C(=O)C1c1nc2ccccc2s1`, for which the TGI with RXF 393 renal, with 786-0 renal, in the assay with U251 CNS, with UACC-62 melanoma, with LOX IMVI melanoma and in the assay with ACHN renal was greater than 100 µM throughout. Further, the TGI with NCI-H522 lung and in the assay with A498 renal was greater than 100 µM in each case.
Turning to `CCOC1=C/C(=N\Nc2ccc([N+](=O)[O-])cc2)CCC1`, the TGI is 63.1 µM in the assay with RXF 393 renal; greater than 100 µM in the assay with 786-0 renal; 54.1 µM in the assay with U251 CNS; 67.4 µM in the assay on UACC-62 melanoma; greater than 100 µM in the assay on LOX IMVI melanoma; 34.8 µM in the assay with ACHN renal. For the same molecule, the TGI in the assay on NCI-H522 lung was 23.4 µM; in the assay on A498 renal, greater than 100 µM; with MOLT-4 leukemia, greater than 100 µM.
Regarding `Nc1ccccc1SC(/C=C/NNC1=NC(c2ccccc2)C(c2ccccc2)=NN1)c1ccccc1` (stereo unspecified), the TGI is 27.1 µM in the assay on RXF 393 renal; 25 µM in the assay on 786-0 renal; 28.9 µM with U251 CNS; 24.1 µM in the assay with UACC-62 melanoma; 27.1 µM in the assay on LOX IMVI melanoma; 28.6 µM with ACHN renal. In addition, the values for the TGI in the assay on NCI-H522 lung, in the assay on A498 renal and in the assay with MOLT-4 leukemia were 14.5 µM, 36.8 µM and 15.7 µM, respectively.
Consider `CCNC(=O)COc1ccc(Cl)c(C)c1`, for which the TGI in the assay with RXF 393 renal, with 786-0 renal, in the assay on U251 CNS, with UACC-62 melanoma, in the assay on LOX IMVI melanoma and in the assay with ACHN renal was greater than 100 µM each time. In addition, the TGI with NCI-H522 lung, with A498 renal and in the assay on MOLT-4 leukemia was greater than 100 µM throughout.
On to `Cc1nc(Nc2ccc(Cl)cc2)sc1C(=O)Nc1cccc2c(=O)[nH][nH]c(=O)c12`, for which the TGI in the assay with RXF 393 renal was 69.2 µM; with 786-0 renal, 47.9 µM; in the assay with U251 CNS, greater than 100 µM; in the assay with UACC-62 melanoma it was 16.4 µM; in the assay on LOX IMVI melanoma, 33 µM; in the assay with ACHN renal, greater than 100 µM. Further, the TGI with NCI-H522 lung is 75.5 µM; in the assay with A498 renal it was 59.4 µM; with MOLT-4 leukemia, 50.4 µM.
